Reference: publication PMC6982876, “Synthesis of Novel Benzodifuranyl; 1,3,5-Triazines; 1,3,5-Oxadiazepines; and Thiazolopyrimidines Derived from Visnaginone and Khellinone as Anti-Inflammatory and Analgesic Agents” (Molecules, 2020)
Marks after values point to notes of the source that are not given here.

How the values were obtained:
[1] = tested on: carrageenan-induced paw edema in rats; experiment: Carrageenan-induced paw edema (anti-inflammatory activity); type: in vivo; conditions: 10 mg/kg oral; for % Change in Paw Height (Mean ± SEM): n = 5
Experimental: Albino rats (150–180 g) were used. The rats were divided into 11 experimental groups of five rats each. One hour after oral administration of the compounds (10 mg/kg), 0.1 mL of 1% carrageenan solution was injected in the left hind paw of each animal. Rat paw volumes were measured with a digital caliber plethysmometer (UGO Basile, Varese, Italy) used to measure inflammation height at 0, 1, 2, and 3 h after carrageenan injection. The percentage increase in inflammation in the left hind paw, in comparison to the uninjected right hind paw, was determined, calculated, and expressed as the amount of inflammation. […] The anti-inflammatory activity of the selected analgesic compounds after 3 h was expressed as percentage inhibition of edema, which was calculated according to the following equation: (2) Inhibition of edema (%) =Vcont−Vtest/Vcont×100* where V cont is the edema volume in the control group, and V test is the edema volume in the group of the screened compound.

[2] = target: T1, human recombinant COX-2 (Homo sapiens, UniProt P35354); experiment: In vitro COX inhibitor screening assay (EIA kit, Cayman), COX-2; type: biochemical; conditions: for COX2 (SI) selectivity index: COX-1 IC50 / COX-2 IC50; for IC50: COX-2, mean of two determinations, enzyme kit, read-out: COX2 IC50
T1 construct: purchased Cayman Chemical, Ann Arbor, MI, USA 560131
T1 sequence (P35354 18-604): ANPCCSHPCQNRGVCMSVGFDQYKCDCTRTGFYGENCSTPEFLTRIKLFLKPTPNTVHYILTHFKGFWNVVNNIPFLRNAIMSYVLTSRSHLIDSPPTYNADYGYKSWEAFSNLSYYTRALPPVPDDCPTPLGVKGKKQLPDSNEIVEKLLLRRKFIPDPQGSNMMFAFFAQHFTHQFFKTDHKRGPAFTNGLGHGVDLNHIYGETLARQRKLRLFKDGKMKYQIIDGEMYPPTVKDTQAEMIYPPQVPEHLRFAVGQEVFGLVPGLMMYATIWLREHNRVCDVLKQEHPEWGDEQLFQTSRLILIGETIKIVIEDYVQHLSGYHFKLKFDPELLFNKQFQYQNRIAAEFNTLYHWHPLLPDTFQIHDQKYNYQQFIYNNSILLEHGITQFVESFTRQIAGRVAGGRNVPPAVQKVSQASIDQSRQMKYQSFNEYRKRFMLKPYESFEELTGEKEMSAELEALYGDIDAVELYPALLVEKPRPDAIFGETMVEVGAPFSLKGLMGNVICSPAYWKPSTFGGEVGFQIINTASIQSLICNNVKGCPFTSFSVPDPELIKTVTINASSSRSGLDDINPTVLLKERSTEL
Experimental: (§1) Furthermore, the selectivity index for COX-2 (COX-1 IC50 / COX-2 IC50) was calculated for the compounds.

[3] = tested on: acetic acid-induced writhing in mice; experiment: Acetic acid-induced writhing test (analgesic activity); type: in vivo; conditions: 10 mg/kg p.o.; for Writhing Number in 20 min (Mean ± SEM): acetic acid 1 h after dosing; for Analgesic Activity (% protection): writhing test
Experimental: The analgesic activity of the compounds was performed using the writhing test as described by Gawade et al.. Mice weight ranged from 25 to 30 g. Then, mice were divided into 18 different groups, each containing five animals. The animals fasted for 8 h before the experiment. Administration of the compounds (10 mg/kg, p.o.) was performed orally. Equal doses of diclofenac as the reference drug and saline as a negative control were also administrated orally. Writhing was induced one hour after compound administration by using 0.1 mL of 1% glacial acetic acid at a volume of 0.1 mL/10 g body weight. The number of writhing responses (stretching of the abdomen, extension of hind limbs, twisting of the trunk, and elongation of the body) observed was counted for 20 min. The protection percentile against acetic acid-induced writhing was calculated according to the following formula: (1) Analgesic activity (%) =n−n′/n×100* where n is the mean number of writhes of the control group, and n’ is the mean number of writhes of the tested compound group.

[4] = target: T2, ovine COX-1 (Ovis aries, UniProt P05979); experiment: In vitro COX inhibitor screening assay (EIA kit, Cayman), COX-1; type: biochemical; conditions: mean of two determinations, enzyme kit, read-out: COX1 IC50
T2 construct: purchased Cayman Chemical, Ann Arbor, MI, USA 560131
T2 sequence (P05979 25-600): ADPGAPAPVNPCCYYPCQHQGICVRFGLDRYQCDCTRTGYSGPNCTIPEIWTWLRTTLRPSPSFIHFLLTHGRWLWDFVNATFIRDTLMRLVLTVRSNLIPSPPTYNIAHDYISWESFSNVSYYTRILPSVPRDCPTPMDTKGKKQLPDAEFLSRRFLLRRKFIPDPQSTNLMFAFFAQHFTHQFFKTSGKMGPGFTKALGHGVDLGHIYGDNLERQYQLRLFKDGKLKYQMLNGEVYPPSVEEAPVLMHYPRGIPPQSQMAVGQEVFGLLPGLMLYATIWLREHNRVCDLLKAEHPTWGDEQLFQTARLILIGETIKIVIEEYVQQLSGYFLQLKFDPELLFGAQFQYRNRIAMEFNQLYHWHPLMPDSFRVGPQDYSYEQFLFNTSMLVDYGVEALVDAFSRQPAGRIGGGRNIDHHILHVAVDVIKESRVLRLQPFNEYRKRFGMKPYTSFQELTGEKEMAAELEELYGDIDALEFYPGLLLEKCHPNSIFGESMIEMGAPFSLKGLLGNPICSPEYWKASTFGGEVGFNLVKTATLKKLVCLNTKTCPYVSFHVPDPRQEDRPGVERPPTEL
Experimental: as §1

Row | SMILES | COX2 (SI) selectivity index [2] | IC50 [2] | melting point | IC50 [4] | % Change in Paw Height (Mean ± SEM) ([1]; 1 hr after carrageenan) | % Change in Paw Height (Mean ± SEM) ([1]; 2 hr after carrageenan) | Anti-Inflammatory Activity (% Inhibition of Edema) ([1]; 3 hr after carrageenan) | % Change in Paw Height (Mean ± SEM) ([1]; 3 hr after carrageenan) | Writhing Number in 20 min (Mean ± SEM) ([3]; n = 5) | Analgesic Activity (% protection) ([3]; n = 5) | Analgesic Activity (% protection) ([3]; n = 5, 10 mg/kg) | Analgesic Activity (% protection) ([3]; n = 5, listed as sodium diclofenac, 10 mg/kg)
1 | COc1c(C(C)=O)c(OCC(=O)Nc2cc(=O)[nH]c(=S)[nH]2)c(OC)c2occc12 [Compound 4b, 2-((5-acetyl-4,7-dimethoxybenzofuran-6-yl)oxy)-N-(6-oxo-2-thioxo-1,2,3,6-tetrahydropyrimidin-4-yl) acetamide] | 45 | 0.411 µM | 186 to 188 °C | 18.5 µM | 0.47 ± 0.04 ^a % | 0.38 ± 0.03 ^a % | 26% | 0.47 ± 0.01 ^a % | 56 ± 1.2 ^a,b | 19 ± 1.30% |  | 
2 | COc1c2ccoc2cc2oc(C(=O)Nc3cc(=O)n4c(n3)SCC4=O)c(C)c12 [Compound 7a, N-(3,5-dioxo-2,3-dihydro-5H-thiazolo [3,2-a]pyrimidin-7-yl)-4-methoxy-3-methylbenzo [1,2-b: 5,4-b`] difuran-2-carboxamide] | 79 | 0.101 µM | 308 to 310 °C | 7.95 µM | 0.31 ± 0.01 ^a % | 0.26 ± 0.02 ^a % | 50% | 0.30 ± 0.02 ^a % | 42 ± 1.8 ^a,b | 33 ± 1.70% |  | 
3 | COc1c2occc2c(OC)c2c(C)c(C(=O)Nc3cc(=O)[nH]c(SCC(=O)O)n3)oc12 [Compound 6b, 2-((4-(4,8-dimethoxy-3-methylbenzo [1,2-b: 5,4-b`]difuran-2-carboxamido)-6-oxo-1,6-dihydropyrimidin-2-yl)thio) acetic acid] | 55 | 0.311 µM | 293 to 295 °C | 17.1 µM | 0.38 ± 0.03 ^a % | 0.31 ± 0.04 ^a % | 38% | 0.39 ± 0.01 ^a % | 49 ± 1.2 ^a,b | 26 ± 0.80% |  | 
4 | COc1c2ccoc2cc2oc(C(=O)Nc3cc(=O)[nH]c(SCC(=O)O)n3)c(C)c12 [Compound 6a, 2-((4-(4-methoxy-3-methylbenzo [1,2-b: 5,4-b`]difuran-2-carboxamido)-6-oxo-1,6-dihydropyrimidin-2-yl)thio) acetic acid] | 51 | 0.345 µM | 278 to 280 °C | 17.5 µM | 0.39 ± 0.01 ^a % | 0.32 ± 0.02 ^a % | 35% | 0.41 ± 0.02 ^a % | 50 ± 1.6 ^a,b | 25 ± 0.50% |  | 
5 | COc1c(C(C)=O)c(OCC(=O)Nc2cc(=O)[nH]c(=S)[nH]2)cc2occc12 [Compound 4a, 2-((5-acetyl-4-methoxybenzofuran-6-yl)oxy)-N-(6-oxo-2-thioxo-1,2,3,6-tetrahydropyrimidin-4-yl) acetamide] | 41 | 0.46 µM | 170 to 172 °C | 18.8 µM |  | 0.40 ± 0.02 ^a % |  | 0.49 ± 0.02 ^a % |  | 18 ± 1.20% |  | 
6 | O=C(O)Cc1ccccc1Nc1c(Cl)cccc1Cl [Diclofenac, reference compound] |  |  |  |  |  | 0.13 ± 0.02 ^a % | 63% | 0.20 ± 0.01 ^a % | 25 ± 1.2 ^a |  | 51 ± 1.15 ^a % | 51%

Further lines, with some results ahead:

Row | COX2 (SI) selectivity index [2] | IC50 [2] | melting point | IC50 [4] | SMILES | % Change in Paw Height (Mean ± SEM) ([1]; 1 hr after carrageenan) | % Change in Paw Height (Mean ± SEM) ([1]; 2 hr after carrageenan) | Anti-Inflammatory Activity (% Inhibition of Edema) ([1]; 3 hr after carrageenan) | % Change in Paw Height (Mean ± SEM) ([1]; 3 hr after carrageenan) | Writhing Number in 20 min (Mean ± SEM) ([3]; n = 5) | Analgesic Activity (% protection) ([3]; n = 5) | Analgesic Activity (% protection) ([3]; n = 5, 10 mg/kg) | Analgesic Activity (% protection) ([3]; n = 5, listed as sodium diclofenac, 10 mg/kg)
7 | 70 | 0.17 µM | > 350 °C | 12 µM | COc1c2ccoc2cc2oc(C(Cl)=Nc3cc(Cl)nc(SC)n3)c(C)c12 [Compound 9a, N-(6-chloro-2-(methylthio)pyrimidin-4-yl)-4-methoxy-3-methylbenzo [1,2-b: 5,4-b`] difuran-2-carbimidoyl chloride] | 0.35 ± 0.01 ^a % | 0.28 ± 0.02 ^a % | 45% | 0.33 ± 0.02 ^a % | 45 ± 2.4 ^a,b | 30 ± 1.05% |  | 
8 | 63 | 0.245 µM | 347 to 349 °C | 15.5 µM | COc1c2occc2c(OC)c2c(C)c(C(Cl)=Nc3cc(Cl)nc(=S)[nH]3)oc12 [Compound 8b, N-(6-chloro-2-thioxo-2,3-dihydropyrimidin-4-yl)-4,8-dimethoxy-3-methylbenzo [1,2-b: 5,4-b`] difuran-2-carbimidoyl chloride] | 0.36 ± 0.01 ^a % | 0.29 ± 0.02 ^a % | 42% | 0.35 ± 0.02 ^a % | 47 ± 2.2 ^a,b | 28 ± 0.95% |  | 
9 | 61 | 0.28 µM | 337 to 339 °C | 17 µM | COc1c2ccoc2cc2oc(C(Cl)=Nc3cc(Cl)nc(=S)[nH]3)c(C)c12 [Compound 8a, N-(6-chloro-2-thioxo-2,3-dihydropyrimidin-4-yl)-4-methoxy-3-methylbenzo [1,2-b: 5,4-b`] difuran-2-carbimidoyl chloride] | 0.37 ± 0.02 ^a % | 0.30 ± 0.03 ^a % | 40% | 0.37 ± 0.02 ^a % | 48 ± 1.9 ^a,b | 27 ± 0.60% |  | 
